# Reference: patent US9932335B2 (priority 2013, dated 2018)
# Substitutions are numbered along the chain they refer to. Where two headings read alike, the source gives them in different places.
# Columns and labels:
# M1 receptor = biological target: T1, M1 receptor (Rattus norvegicus, UniProt P08482); assay: M1 PAM assay (FLIPR intracellular calcium), rat; type: cell-based
# T1 construct: expressed in transfected cells
# T1 sequence (P08482 1-460): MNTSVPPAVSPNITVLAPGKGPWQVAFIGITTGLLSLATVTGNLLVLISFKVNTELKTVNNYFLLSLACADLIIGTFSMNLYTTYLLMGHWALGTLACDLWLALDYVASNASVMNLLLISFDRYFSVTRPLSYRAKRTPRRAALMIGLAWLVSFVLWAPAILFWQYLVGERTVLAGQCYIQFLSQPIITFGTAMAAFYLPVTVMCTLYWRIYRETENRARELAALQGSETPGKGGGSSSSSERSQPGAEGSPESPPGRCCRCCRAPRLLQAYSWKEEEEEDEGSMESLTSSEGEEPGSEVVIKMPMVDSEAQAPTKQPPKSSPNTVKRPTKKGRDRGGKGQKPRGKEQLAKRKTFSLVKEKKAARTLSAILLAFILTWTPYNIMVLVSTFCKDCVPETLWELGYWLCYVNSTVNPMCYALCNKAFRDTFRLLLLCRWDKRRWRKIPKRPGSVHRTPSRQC
# human M1 = biological target: T2, human M1 (Homo sapiens, UniProt P11229); assay: M1 PAM assay (FLIPR intracellular calcium, CHO human M1); type: cell-based
# T2 construct: expressed in transfected cells; host or cells: CHO cells
# T2 sequence (P11229 1-460): T1 sequence (P08482 1-460) with V5A, S254T, S309P, K320R, G337A, V413I
# Experimental: The assay study the effect of several concentrations of test compounds on basal or acetylcholine-stimulated Ca^2+ levels using FLIPR. CHO human M1 are plated the day before the experiments at 2×10^5 cells/ml in PDL BioCoat 96 well black/clear plate (Becton 35 4640). The cells are grown at 37° C. and 5% CO2 in the following medium: F12 Nut Mix (Gibco 21765), 10% FCS heat inactivated (GIBCO 16000-044), 1% Pen Strep (Gibco, 15140) and 200 μg/ml Geneticin (Gibco 11811). On the day of the experiment, the medium was removed and replaced by 100 μl of dye loading buffer containing Hanks Balanced Salt solution (HBSS, 14065-049, Gibco) with 20 mM HEPES (Gibco 15630-056), 2 mM Probenicid (Sigma P8761), […] (Molecular Probes F-14202), 10% Pluronic acid Molecular Probes P-3000) pH=7.4 and incubated at 37° C. After 60 minutes extracellular dye was removed and the cells were washed five times with FLIPR buffer containing HBSS (Gibco 14065-049) with 20 mM HEPES (Gibco, 15630-056), 2 mM Probenicid (Sigma P8761) pre-warmed at 37° C. using and Ebml cell washer leaving 100 μl of FLIPR buffer in each well. The cell plate and the diluted compounds (1% DMSO final concentration) are placed on the platform of the FLIPR and the door closed. A signal test to check background fluorescence and basal fluorescence signal is performed. Laser intensity is adjusted if necessary. Two minutes preincubation with the diluted test compounds is provide to determine any agonist activity on the M1 receptor by comparison to 30 nM Acetylcholine control. In order to determine any modulator activity the diluted compounds were added to cells and after two minutes preincubation, the EC20 of acetylcholine is added followed by another two minutes preincubation before the measurement of intracellular Ca^2+ with a FLIPR (Molecular Devices).
# [1] = rat, modulator activity with EC20 of acetylcholine, FLIPR Ca2+, read-out: EC50 rat PAM
# [2] = human M1 in CHO cells, modulator activity with EC20 of acetylcholine, FLIPR Ca2+, read-out: EC50 h PAM
Compound,EC50 (M1 receptor; [1]) [nM],EC50 (human M1; [2]) [nM],EC50 (M1 receptor) [nM],EC50 (human M1) [nM]
"Cn1cc(-c2ccc(Cn3cc(C(=O)N[C@H]4CCCC[C@@H]4F)c4ncccc43)c(F)c2)cn1 (racemic) [Example 58, 1-(2-fluoro-4-(1-methyl-1H-pyrazol-4-yl)benzyl)-N-((1SR,2SR)-2-fluorocyclohexyl)-1H-pyrrolo[3,2-b]pyridine-3-carboxamide]",453,239,,
"Cn1cc(-c2ccc(Cn3cc(C(=O)N[C@H]4CCOC[C@@H]4O)c4ncccc43)c(F)c2)cn1 (single isomer, unassigned) [Example 59, 1-[[2-fluoro-4-(1-methylpyrazol-4-yl)phenyl]methyl]-N-[(3R,4S) or (3S,4R)-3-hydroxyoxan-4-yl]pyrrolo[3,2-b]pyridine-3-carboxamide]",,,18,15.5
"NC(=O)c1ccc(Cn2cc(C(=O)N[C@@H]3CCOC[C@H]3O)c3ncccc32)cc1 (stereo in doubt) [Example 63a, 1-(4-Carbamoylbenzyl)-N-((3S,4R)-3-hydroxytetrahydro-2H-pyran-4-yl)-1H-pyrrolo[3,2-b]pyridine-3-carboxamide]",,,661,289
"NC(=O)c1ccc(Cn2cc(C(=O)N[C@H]3CCOC[C@@H]3O)c3ncccc32)cc1 (stereo in doubt) [Example 63b, 1-(4-carbamoylbenzyl)-N-((3R,4S)-3-hydroxytetrahydro-2H-pyran-4-yl)-1H-pyrrolo[3,2-b]pyridine-3-carboxamide]",,,47,13
"O=C(N[C@H]1CCCC[C@@H]1O)c1cn(Cc2cc(Br)ccc2F)c2cccnc12 [Example 1, 1-(5-bromo-2-fluorobenzyl)-N-((1S,2S)-2-hydroxycyclohexyl)-1H-pyrrolo[3,2b]pyridine-3-carboxamide]",,,1950,545
"Cn1cc(-c2ccc(Cn3cc(C(=O)N[C@H]4CCCC[C@@H]4O)c4ncccc43)c(F)c2)cn1 [Example 2, 1-(2-fluoro-4-(1-methyl-1H-pyrazol-4-yl)benzyl)-N-((1S,2S)-2-hydroxycyclohexyl)-1H-pyrrolo[3,2-b]pyridine-3-carboxamide]",34.7,9.86,,
"Cn1cc(-c2ccc(Cn3cc(C(=O)N[C@@H]4CCCC[C@H]4O)c4ncccc43)c(F)c2)cn1 [Example 3, 1-(2-fluoro-4-(1-methyl-1H-pyrazol-4-yl)benzyl)-N-((1R,2R)-2-hydroxycyclohexyl)-1H-pyrrolo[3,2-b]pyridine-3-carboxamide]",,,131,101
"O=C(N[C@H]1CCCC[C@@H]1O)c1cn(Cc2ccc(Cl)nc2)c2cccnc12 [Example 5, 1-((6-chloropyridin-3-yl)methyl)-N-((1S,2S)-2-hydroxycyclohexyl)-1H-pyrrolo[3,2-b]pyridine-3-carboxamide]",,,2320,489
"Cn1cc(-c2ccc(Cn3nc(C(=O)N[C@H]4CCCC[C@@H]4O)c4ncccc43)c(F)c2)cn1 [Example 6, 1-(2-fluoro-4-(1-methyl-1H-pyrazol-4-yl)benzyl)-N-((1S,2S)-2-hydroxycyclohexyl)-1H-pyrazolo[4,3-b]pyridine-3-carboxamide]",71.5,25.3,,
"C[C@@H](CO)NC(=O)c1cn(Cc2ccc(-c3cnn(C)c3)cc2F)c2cccnc12 [Example 8, 1-[2-Fluoro-4-(1-methyl-1H-pyrazol-4-yl)-benzyl]-1H-pyrrolo[3,2-b]pyridine-3-carboxylic acid ((S)-2-hydroxy-1-methyl-ethyl)-amide]",,,695,248
"Cn1cc(-c2ccc(Cn3cc(C(=O)NCC(C)(C)O)c4ncccc43)c(F)c2)cn1 [Example 11, 1-[2-Fluoro-4-(1-methyl-1H-pyrazol-4-yl)-benzyl]-1H-pyrrolo[3,2-b]pyridine-3-carboxylic acid (2-hydroxy-2-methyl-propyl)-amide]",,,616,317
"CC[C@@H](CO)NC(=O)c1cn(Cc2ccc(-c3cnn(C)c3)cc2F)c2cccnc12 [Example 12, 1-[2-Fluoro-4-(1-methyl-1H-pyrazol-4-yl)-benzyl]-1H-pyrrolo[3,2-b]pyridine-3-carboxylic acid ((S)-1-hydroxymethyl-propyl)-amide]",,,244,129
"CCC(CO)NC(=O)c1cn(Cc2ccc(-c3cnn(C)c3)cc2F)c2cccnc12 (stereo not drawn) [Example 13, 1-[2-Fluoro-4-(1-methyl-1H-pyrazol-4-yl)-benzyl]-1H-pyrrolo[3,2-b]pyridine-3-carboxylic acid (1-hydroxymethyl-propyl)-amide]",,,632,195
"CCC(O)CNC(=O)c1cn(Cc2ccc(-c3cnn(C)c3)cc2F)c2cccnc12 (stereo not drawn) [Example 14, 1-[2-Fluoro-4-(1-methyl-1H-pyrazol-4-yl)-benzyl]-1H-pyrrolo[3,2-b]pyridine-3-carboxylic acid (2-hydroxy-butyl)-amide]",155,100,,
"Cn1cc(-c2ccc(Cn3cc(C(=O)N[C@H]4CCC[C@@H]4O)c4ncccc43)c(F)c2)cn1 [Example 17, 1-[2-Fluoro-4-(1-methyl-1H-pyrazol-4-yl)-benzyl]-1H-pyrrolo[3,2-b]pyridine-3-carboxylic acid ((1S,2S)-2-hydroxy-cyclopentyl)-amide]",,,272,64.9
"Cn1cc(-c2ccc(Cn3cc(C(=O)N[C@H]4CCC[C@H]4O)c4ncccc43)c(F)c2)cn1 [Example 18, 1-[2-Fluoro-4-(1-methyl-1H-pyrazol-4-yl)-benzyl]-1H-pyrrolo[3,2-b]pyridine-3-carboxylic acid ((1S,2R)-2-hydroxy-cyclopentyl)-amide]",,,195,96
"CC(C)[C@@H](CO)NC(=O)c1cn(Cc2ccc(-c3cnn(C)c3)cc2F)c2cccnc12 [Example 19, 1-[2-Fluoro-4-(1-methyl-1H-pyrazol-4-yl)-benzyl]-1H-pyrrolo[3,2-b]pyridine-3-carboxylic acid ((S)-1-hydroxymethyl-2-methyl-propyl)-amide]",,,285,178
"CCCC(CO)NC(=O)c1cn(Cc2ccc(-c3cnn(C)c3)cc2F)c2cccnc12 (stereo not drawn) [Example 20, 1-[2-Fluoro-4-(1-methyl-1H-pyrazol-4-yl)-benzyl]-1H-pyrrolo[3,2-b]pyridine-3-carboxylic acid (1-hydroxymethyl-butyl)-amide]",,,499,199
"CC(C)C(CO)NC(=O)c1cn(Cc2ccc(-c3cnn(C)c3)cc2F)c2cccnc12 (stereo not drawn) [Example 22, 1-[2-Fluoro-4-(1-methyl-1H-pyrazol-4-yl)-benzyl]-1H-pyrrolo[3,2-b]pyridine-3-carboxylic acid (1-hydroxymethyl-2-methyl-propyl)-amide]",,,381,183
"Cn1cc(-c2ccc(Cn3cc(C(=O)NCC4(O)CCCC4)c4ncccc43)c(F)c2)cn1 [Example 24, 1-[2-Fluoro-4-(1-methyl-1H-pyrazol-4-yl)-benzyl]-1H-pyrrolo[3,2-b]pyridine-3-carboxylic acid (1-hydroxy-cyclopentylmethyl)-amide]",261,193,,
"CC[C@H](C)[C@@H](CO)NC(=O)c1cn(Cc2ccc(-c3cnn(C)c3)cc2F)c2cccnc12 [Example 26, 1-[2-Fluoro-4-(1-methyl-1H-pyrazol-4-yl)-benzyl]-1H-pyrrolo[3,2-b]pyridine-3-carboxylic acid ((1S,2S)-1-hydroxymethyl-2-methyl-butyl)-amide]",302,143,,
